Source: ChEMBL document CHEMBL4033610, “Analogues of the Potent Antitumor Compound Leiodermatolide from a Deep-Water Sponge of the Genus Leiodermatium” (J Nat Prod, 2017)

System: ASPC1
Assay: Cytotoxicity against human Aspc-1 cells incubated for 72 hrs by MTT assay
Assay type: functional, cell-based
Conditions: ASPC1, 72 h

| SMILES | IC50 [nM] |
| --- | --- |
| CC[C@@H]1OC(=O)C[C@@](O)(C/C=C/C=C(\C)[C@H]2OC(=O)CC/C=C(\C)[C@@H](C)[C@H](O)[C@H](C)[C@@H](OC(N)=O)/C=C\C=C/[C@@H]2C)[C@H]1C | 46 |
| CC[C@@H]1OC(=O)C[C@@H](C/C=C/C=C(\C)[C@H]2OC(=O)CC/C=C(\C)[C@@H](C)[C@H](O)[C@H](C)[C@@H](OC(N)=O)/C=C\C=C/[C@@H]2C)[C@H]1C | 43 |
| C=C1[C@@H](C)[C@H](O)[C@H](C)[C@@H](OC(N)=O)/C=C\C=C/[C@H](C)[C@@H](/C(C)=C/C=C/C[C@]2(O)CC(=O)O[C@@H](CC)[C@@H]2C)OC(=O)CC[C@H]1OO | 3700 |
